# Laboratory results: the kinase profiling compilation of Christmann-Franck et al. (2016)
# What was measured:
# Test in all cases: KINOMEscan competition binding
# Conditions in all cases: compound 10.0 µM
# [1] = target: PIK3C2B (human) (UniProt O00750)
# [2] = target: INSR (human) (UniProt P06213)
# [3] = target: LATS2 (human) (UniProt Q9NRM7)
# [4] = target: PKN2 (human) (UniProt Q16513)
# [5] = target: CAMK4 (human) (UniProt Q16566)
# [6] = target: STK32B (human) (UniProt Q9NY57)
# [7] = target: CDK3 (human) (UniProt Q00526)
# Chain of CDK3 (human) (Q00526 whole entry, looked up): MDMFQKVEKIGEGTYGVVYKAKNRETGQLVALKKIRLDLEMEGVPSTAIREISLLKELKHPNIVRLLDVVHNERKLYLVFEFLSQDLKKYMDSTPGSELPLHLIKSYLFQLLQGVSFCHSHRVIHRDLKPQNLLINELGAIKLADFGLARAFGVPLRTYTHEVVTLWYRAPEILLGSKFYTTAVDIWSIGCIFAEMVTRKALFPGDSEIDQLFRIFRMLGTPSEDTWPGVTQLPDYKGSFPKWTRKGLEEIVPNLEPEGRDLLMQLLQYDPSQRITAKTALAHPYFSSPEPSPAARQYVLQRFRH
# [8] = target: FLT1 (human) (UniProt P17948)
# [9] = target: ULK3 (human) (UniProt Q6PHR2)
# [10] = target: CLK2 (human) (UniProt P49760)
# [11] = target: FGFR1 (human) (UniProt P11362)
# [12] = target: PRKAA1 (human) (UniProt Q13131)
# [13] = target: ROCK2 (human) (UniProt O75116)
# [14] = target: CAMK1G (human) (UniProt Q96NX5)
# [15] = target: MUSK (human) (UniProt O15146)
# [16] = target: MAP2K1 (human) (UniProt Q02750)
# [17] = target: CHEK1 (human) (UniProt O14757)
# [18] = target: BMPR2 (human) (UniProt Q13873)
# [19] = target: MYO3B (human) (UniProt Q8WXR4)
# [20] = target: RPS6KA1 KD1 (human) (UniProt Q15418)
# [21] = target: MAP3K10 (human) (UniProt Q02779)
# [22] = target: CAMK1D (human) (UniProt Q8IU85)
# Chain of CAMK1D (human) (Q8IU85 whole entry, looked up): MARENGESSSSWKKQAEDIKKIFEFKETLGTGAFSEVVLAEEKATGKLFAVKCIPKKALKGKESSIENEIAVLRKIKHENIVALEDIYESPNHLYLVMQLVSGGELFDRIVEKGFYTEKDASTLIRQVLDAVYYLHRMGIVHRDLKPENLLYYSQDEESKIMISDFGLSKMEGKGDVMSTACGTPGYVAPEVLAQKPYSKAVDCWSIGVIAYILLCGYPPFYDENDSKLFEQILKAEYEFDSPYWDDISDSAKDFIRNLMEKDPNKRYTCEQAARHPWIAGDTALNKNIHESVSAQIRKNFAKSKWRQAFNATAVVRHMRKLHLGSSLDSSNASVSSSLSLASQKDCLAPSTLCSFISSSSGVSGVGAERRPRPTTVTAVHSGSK
# [23] = target: MKNK2 (human) (UniProt Q9HBH9)
# [24] = target: SLK (human) (UniProt Q9H2G2)
# Chain of SLK (human) (Q9H2G2 whole entry, looked up): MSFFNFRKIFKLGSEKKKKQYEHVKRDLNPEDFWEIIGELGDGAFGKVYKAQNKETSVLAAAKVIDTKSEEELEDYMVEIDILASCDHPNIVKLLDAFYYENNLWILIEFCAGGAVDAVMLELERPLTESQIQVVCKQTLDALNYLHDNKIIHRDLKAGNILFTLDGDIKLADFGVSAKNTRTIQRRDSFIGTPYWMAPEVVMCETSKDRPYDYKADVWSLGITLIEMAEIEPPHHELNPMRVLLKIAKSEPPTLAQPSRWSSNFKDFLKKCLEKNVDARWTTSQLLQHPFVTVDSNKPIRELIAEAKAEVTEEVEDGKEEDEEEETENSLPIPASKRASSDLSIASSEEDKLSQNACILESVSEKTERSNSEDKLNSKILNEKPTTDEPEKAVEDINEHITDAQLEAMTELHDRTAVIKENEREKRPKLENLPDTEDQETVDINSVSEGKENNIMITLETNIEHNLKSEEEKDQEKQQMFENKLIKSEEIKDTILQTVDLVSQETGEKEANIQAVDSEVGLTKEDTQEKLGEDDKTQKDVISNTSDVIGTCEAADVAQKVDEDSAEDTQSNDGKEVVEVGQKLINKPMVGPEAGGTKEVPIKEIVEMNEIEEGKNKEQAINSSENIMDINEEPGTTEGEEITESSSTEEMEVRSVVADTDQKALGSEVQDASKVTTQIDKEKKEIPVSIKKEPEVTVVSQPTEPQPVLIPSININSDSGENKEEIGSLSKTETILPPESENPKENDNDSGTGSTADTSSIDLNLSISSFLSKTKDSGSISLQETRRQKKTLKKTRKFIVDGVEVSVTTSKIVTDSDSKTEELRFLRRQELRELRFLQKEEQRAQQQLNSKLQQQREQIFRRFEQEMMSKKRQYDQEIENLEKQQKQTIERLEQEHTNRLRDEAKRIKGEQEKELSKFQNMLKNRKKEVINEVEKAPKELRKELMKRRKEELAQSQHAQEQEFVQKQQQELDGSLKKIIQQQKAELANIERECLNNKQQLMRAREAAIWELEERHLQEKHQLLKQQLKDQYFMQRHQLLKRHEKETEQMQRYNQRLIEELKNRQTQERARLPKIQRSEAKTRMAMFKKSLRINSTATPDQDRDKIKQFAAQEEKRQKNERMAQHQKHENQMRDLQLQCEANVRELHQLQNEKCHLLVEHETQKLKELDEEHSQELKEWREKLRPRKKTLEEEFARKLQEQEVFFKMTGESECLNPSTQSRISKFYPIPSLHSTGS
# [25] = target: PRKD2 (human) (UniProt Q9BZL6)
# [26] = target: CLK1 (human) (UniProt P49759)
# [27] = target: HIPK1 (human) (UniProt Q86Z02)
# [28] = target: CHUK (human) (UniProt O15111)
# [29] = target: EPHA2 (human) (UniProt P29317)
# [30] = target: FGR (human) (UniProt P09769)
# [31] = target: MAP3K5 (human) (UniProt Q99683)
# [32] = target: DCLK3 (human) (UniProt Q9C098)
# [33] = target: RPS6KA6 KD1 (human) (UniProt Q9UK32)
# [34] = target: MAP2K3 (human) (UniProt P46734)
# Chain of MAP2K3 (human) (P46734 whole entry, looked up): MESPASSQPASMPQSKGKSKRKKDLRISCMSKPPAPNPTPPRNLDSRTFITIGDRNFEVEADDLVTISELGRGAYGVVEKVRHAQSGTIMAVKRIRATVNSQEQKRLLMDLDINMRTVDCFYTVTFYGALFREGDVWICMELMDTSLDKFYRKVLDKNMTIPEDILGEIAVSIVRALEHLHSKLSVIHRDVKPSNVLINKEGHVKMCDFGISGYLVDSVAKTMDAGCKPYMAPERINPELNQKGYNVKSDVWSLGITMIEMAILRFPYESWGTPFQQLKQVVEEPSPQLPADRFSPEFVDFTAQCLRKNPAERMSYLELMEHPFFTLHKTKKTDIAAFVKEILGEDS
# [35] = target: MERTK (human) (UniProt Q12866)
# [36] = target: IGF1R (human) (UniProt P08069)
# [37] = target: PRKD1 (human) (UniProt Q15139)
# [38] = target: ITK (human) (UniProt Q08881)
# Chain of ITK (human) (Q08881 whole entry, looked up): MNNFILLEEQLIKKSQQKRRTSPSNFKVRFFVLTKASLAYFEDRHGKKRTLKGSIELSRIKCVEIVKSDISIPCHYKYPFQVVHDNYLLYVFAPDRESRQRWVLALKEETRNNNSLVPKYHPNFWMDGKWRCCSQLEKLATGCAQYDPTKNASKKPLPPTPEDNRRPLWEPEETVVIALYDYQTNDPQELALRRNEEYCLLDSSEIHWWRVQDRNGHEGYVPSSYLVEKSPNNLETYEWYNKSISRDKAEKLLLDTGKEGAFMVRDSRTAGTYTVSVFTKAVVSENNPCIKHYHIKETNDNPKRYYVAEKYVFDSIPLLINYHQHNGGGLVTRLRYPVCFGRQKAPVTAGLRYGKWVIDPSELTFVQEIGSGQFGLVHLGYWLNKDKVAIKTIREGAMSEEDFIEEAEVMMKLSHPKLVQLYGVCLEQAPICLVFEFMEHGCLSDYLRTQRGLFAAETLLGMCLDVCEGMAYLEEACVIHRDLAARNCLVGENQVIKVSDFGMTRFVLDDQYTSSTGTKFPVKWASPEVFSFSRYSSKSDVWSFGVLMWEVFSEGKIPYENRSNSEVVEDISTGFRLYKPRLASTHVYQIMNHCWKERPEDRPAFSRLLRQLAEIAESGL
# [39] = target: TXK (human) (UniProt P42681)
# Chain of TXK (human) (P42681 whole entry, looked up): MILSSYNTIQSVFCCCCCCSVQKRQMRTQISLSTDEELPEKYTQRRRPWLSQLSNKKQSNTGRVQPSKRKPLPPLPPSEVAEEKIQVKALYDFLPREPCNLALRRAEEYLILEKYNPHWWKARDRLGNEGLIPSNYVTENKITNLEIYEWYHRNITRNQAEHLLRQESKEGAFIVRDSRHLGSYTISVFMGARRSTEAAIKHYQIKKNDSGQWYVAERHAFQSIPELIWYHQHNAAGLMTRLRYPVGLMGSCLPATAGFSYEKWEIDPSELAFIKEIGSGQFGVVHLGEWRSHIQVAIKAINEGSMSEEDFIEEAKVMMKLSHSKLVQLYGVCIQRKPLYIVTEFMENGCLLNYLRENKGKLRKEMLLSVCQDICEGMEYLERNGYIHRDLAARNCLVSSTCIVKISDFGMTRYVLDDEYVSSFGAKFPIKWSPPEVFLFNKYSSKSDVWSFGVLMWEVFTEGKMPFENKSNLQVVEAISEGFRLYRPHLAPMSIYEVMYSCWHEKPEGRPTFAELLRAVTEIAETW
# [40] = target: DAPK2 (human) (UniProt Q9UIK4)
# Chain of PIK3C2B (human) (O00750 whole entry, looked up): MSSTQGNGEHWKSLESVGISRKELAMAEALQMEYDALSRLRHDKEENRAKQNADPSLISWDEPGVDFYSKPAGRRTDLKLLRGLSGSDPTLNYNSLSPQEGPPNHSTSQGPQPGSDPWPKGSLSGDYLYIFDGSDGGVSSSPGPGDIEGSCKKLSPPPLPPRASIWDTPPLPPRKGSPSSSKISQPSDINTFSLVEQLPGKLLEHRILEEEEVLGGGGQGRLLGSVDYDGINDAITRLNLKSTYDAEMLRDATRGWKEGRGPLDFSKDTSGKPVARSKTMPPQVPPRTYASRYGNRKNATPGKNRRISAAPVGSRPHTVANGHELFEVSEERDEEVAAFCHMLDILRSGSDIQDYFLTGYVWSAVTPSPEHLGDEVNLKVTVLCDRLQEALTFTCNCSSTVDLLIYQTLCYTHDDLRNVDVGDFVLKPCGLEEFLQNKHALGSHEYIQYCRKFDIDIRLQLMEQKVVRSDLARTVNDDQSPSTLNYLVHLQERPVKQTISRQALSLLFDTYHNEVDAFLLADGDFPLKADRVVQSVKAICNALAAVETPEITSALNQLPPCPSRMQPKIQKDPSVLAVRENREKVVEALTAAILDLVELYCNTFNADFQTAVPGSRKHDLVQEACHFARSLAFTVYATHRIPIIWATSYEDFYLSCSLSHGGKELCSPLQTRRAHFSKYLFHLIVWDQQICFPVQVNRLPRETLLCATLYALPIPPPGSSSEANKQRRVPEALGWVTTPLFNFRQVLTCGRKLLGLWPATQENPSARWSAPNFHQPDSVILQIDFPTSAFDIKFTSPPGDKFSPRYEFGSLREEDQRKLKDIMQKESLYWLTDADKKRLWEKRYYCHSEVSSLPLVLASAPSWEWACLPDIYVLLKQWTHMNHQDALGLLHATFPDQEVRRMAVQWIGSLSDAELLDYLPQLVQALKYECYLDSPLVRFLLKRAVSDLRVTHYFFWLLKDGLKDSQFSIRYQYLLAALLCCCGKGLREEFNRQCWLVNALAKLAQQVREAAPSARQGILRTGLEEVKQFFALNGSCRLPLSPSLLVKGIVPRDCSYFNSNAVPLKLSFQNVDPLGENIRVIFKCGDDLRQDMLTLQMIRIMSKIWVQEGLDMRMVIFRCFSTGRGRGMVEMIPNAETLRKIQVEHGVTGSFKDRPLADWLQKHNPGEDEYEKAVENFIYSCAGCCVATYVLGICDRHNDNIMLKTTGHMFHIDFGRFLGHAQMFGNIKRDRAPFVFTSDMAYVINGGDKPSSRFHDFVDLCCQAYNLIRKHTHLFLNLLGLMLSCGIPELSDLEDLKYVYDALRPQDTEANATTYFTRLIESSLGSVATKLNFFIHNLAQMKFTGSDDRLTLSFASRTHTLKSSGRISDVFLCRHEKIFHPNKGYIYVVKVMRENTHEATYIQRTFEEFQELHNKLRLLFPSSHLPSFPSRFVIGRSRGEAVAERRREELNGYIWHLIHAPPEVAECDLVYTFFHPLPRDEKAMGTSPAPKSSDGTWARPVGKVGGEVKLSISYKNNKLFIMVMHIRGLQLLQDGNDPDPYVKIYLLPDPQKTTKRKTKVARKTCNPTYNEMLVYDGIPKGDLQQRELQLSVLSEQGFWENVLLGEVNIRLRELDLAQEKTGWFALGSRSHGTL
SMILES,"kinase still bound, per cent of control [1]","kinase still bound, per cent of control [2]","kinase still bound, per cent of control [3]","kinase still bound, per cent of control [4]","kinase still bound, per cent of control [5]","kinase still bound, per cent of control [6]","kinase still bound, per cent of control [7]","kinase still bound, per cent of control [8]","kinase still bound, per cent of control [9]","kinase still bound, per cent of control [10]","kinase still bound, per cent of control [11]","kinase still bound, per cent of control [12]","kinase still bound, per cent of control [13]","kinase still bound, per cent of control [14]","kinase still bound, per cent of control [15]","kinase still bound, per cent of control [16]","kinase still bound, per cent of control [17]","kinase still bound, per cent of control [18]","kinase still bound, per cent of control [19]","kinase still bound, per cent of control [20]",further results
COc1cc(C(=O)NC2CCN(C)CC2)ccc1Nc1ncc2c(n1)N(C1CCCC1)CCC(=O)N2C(C)C,100%,100%,100%,100%,100%,100%,100%,100%,100%,100%,100%,100%,100%,100%,100%,100%,100%,100%,100%,100%,"kinase still bound, per cent of control [21]: 100%; kinase still bound, per cent of control [22]: 100%; kinase still bound, per cent of control [23]: 100%; kinase still bound, per cent of control [24]: 100%; kinase still bound, per cent of control [25]: 100%; kinase still bound, per cent of control [26]: 100%; kinase still bound, per cent of control [27]: 100%; kinase still bound, per cent of control [28]: 100%; kinase still bound, per cent of control [29]: 100%; kinase still bound, per cent of control [30]: 100%; kinase still bound, per cent of control [31]: 100%; kinase still bound, per cent of control [32]: 100%; kinase still bound, per cent of control [33]: 100%; kinase still bound, per cent of control [34]: 100%; kinase still bound, per cent of control [35]: 34%; kinase still bound, per cent of control [36]: 100%; kinase still bound, per cent of control [37]: 100%; kinase still bound, per cent of control [38]: 100%; kinase still bound, per cent of control [39]: 100%; kinase still bound, per cent of control [40]: 100%"
N#Cc1c(NC(=O)c2cccc3ccccc23)sc2c1CCCC2,100%,100%,75%,81%,100%,83%,97%,87%,94%,87%,99%,80%,100%,90%,97%,98%,82%,100%,88%,100%,"kinase still bound, per cent of control [21]: 100%; kinase still bound, per cent of control [22]: 85%; kinase still bound, per cent of control [23]: 92%; kinase still bound, per cent of control [24]: 82%; kinase still bound, per cent of control [25]: 88%; kinase still bound, per cent of control [26]: 69%; kinase still bound, per cent of control [27]: 91%; kinase still bound, per cent of control [29]: 100%; kinase still bound, per cent of control [30]: 100%; kinase still bound, per cent of control [31]: 94%; kinase still bound, per cent of control [32]: 100%; kinase still bound, per cent of control [33]: 70%; kinase still bound, per cent of control [34]: 88%; kinase still bound, per cent of control [35]: 100%; kinase still bound, per cent of control [36]: 76%; kinase still bound, per cent of control [37]: 100%; kinase still bound, per cent of control [38]: 89%; kinase still bound, per cent of control [39]: 100%; kinase still bound, per cent of control [40]: 91%"
